Results taken from the supplement of paper PMC10307832.

Assays:
Test in all cases: relative viability (nuclei count vs DMSO), 5 days (fraction); higher = more cells survive
[1] = compound: C/C(=N\NC(=S)N1CCC1)/C2=CC=CC=N2 + C[C@@H](Oc1cc(-c2cnn(C3CCNCC3)c2)cnc1N)c1c(Cl)ccc(F)c1Cl [Crizotinib] (partner 1 µM)
How it was run: (§1)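 Medians of duplicate plates are given as relative viability. That measure is the nuclei count in treated wells divided by the count in vehicle wells. Counts were taken on 4× images of lung cancer cell lines in 1536-well plates, 5 days after pin-tool dosing the day after seeding with one drug alone or a fixed anchor-drug dose plus five library-drug doses (not always all listed) in √10 steps.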

[2] = compound: C/C(=N\NC(=S)N1CCC1)/C2=CC=CC=N2 + O=C(CCCCCCC(=O)Nc1ccccc1)NO [Vorinostat] (partner 1 µM)
How it was run: as §1

[3] = compound: C/C(=N\NC(=S)N1CCC1)/C2=CC=CC=N2 + CC1(C)CCC(c2ccc(Cl)cc2)=C(CN2CCN(c3ccc(C(=O)NS(=O)(=O)c4ccc(N[C@H](CCN5CCOCC5)CSc5ccccc5)c(S(=O)(=O)C(F)(F)F)c4)cc3)CC2)C1 [Navitoclax] (partner 0.5 µM)
How it was run: as §1

[4] = compound: C/C(=N\NC(=S)N1CCC1)/C2=CC=CC=N2 + Cc1cc(Nc2cc(N3CCN(C)CC3)nc(Sc3ccc(NC(=O)C4CC4)cc3)n2)n[nH]1 [Tozasertib] (partner 0.1 µM)
How it was run: as §1

Cell Line	relative viability ([1]; first compound 0.05 µM)	relative viability ([1]; first compound 0.1581 µM)	relative viability ([1]; first compound 0.5 µM)	relative viability ([1]; first compound 1.581 µM)	relative viability ([1]; first compound 5 µM)	relative viability ([2]; first compound 0.05 µM)	relative viability ([2]; first compound 0.1581 µM)	relative viability ([2]; first compound 0.5 µM)	relative viability ([2]; first compound 1.581 µM)	relative viability ([2]; first compound 5 µM)	relative viability ([3]; first compound 0.05 µM)	relative viability ([3]; first compound 0.1581 µM)	relative viability ([3]; first compound 0.5 µM)	relative viability ([3]; first compound 1.581 µM)	relative viability ([3]; first compound 5 µM)	relative viability ([4]; first compound 0.05 µM)	relative viability ([4]; first compound 0.1581 µM)	relative viability ([4]; first compound 0.5 µM)	relative viability ([4]; first compound 1.581 µM)	relative viability ([4]; first compound 5 µM)
NCI-H1437	0.138	0.133	0.128	0.129	0.0811	0.32	0.334	0.251	0.218	0.188	0.166	0.142	0.152	0.109	0.0981	0.144	0.138	0.157	0.133	0.102
UMC-11	0.181	0.115	0.128	0.101	0.0892	0.168	0.14	0.146	0.134	0.139	0.16	0.138	0.119	0.116	0.106	0.196	0.177	0.196	0.192	0.185
201T	0.773	0.983	0.485	0.477	0.321	0.351	0.349	0.315	0.301	0.281	0.891	1.18	0.708	0.516	0.453	0.424	0.445	0.368	0.292	0.296
ChaGo-K-1	0.34	0.339	0.258	0.312	0.279	0.164	0.159	0.155	0.143	0.165	0.293	0.47	0.27	0.218	0.374	0.141	0.154	0.17	0.151	0.168
NCI-H1650	0.18	0.199	0.19	0.153	0.175	0.159	0.171	0.143	0.143	0.178	0.13	0.173	0.142	0.181	0.214	0.121	0.187	0.126	0.16	0.194
LOU-NH91	0.515	0.471	0.476	0.45	0.472	0.577	0.588	0.566	0.388	0.374	0.275	0.308	0.253	0.225	0.278	0.38	0.411	0.366	0.313	0.367
HOP-62	0.218	0.626	0.0574	0.0819	0.0635	0.0518	0.0592	0.0621	0.0833	0.0796	0.169	0.0748	0.0823	0.104	0.0618	0.129	0.109	0.0803	0.104	0.0835
NCI-H1915	0.469	0.843	0.169	0.152	0.134	0.108	0.0989	0.117	0.11	0.118	0.522	0.742	0.169	0.15	0.137	0.178	0.137	0.129	0.131	0.139
